The text below walks through data of patent US6544727B1, “Methods and devices for the removal of psoralens from blood products” (Cerus Corporation, priority 1995, dated 2003).

One data set has as its system DNA. The settings on record: Isaacs et al., NCI Monograph 66:21 (1984); cited from earlier work.
The test system of a further data set is R17 bacteriophage. Briefly: R17 bacteriophage inactivation at constant concentration, varying doses of UV light. It counts as cell-based. Conditions: 1.0-3.0 J/cm^2, FIGS. 11-17. The protocol: Compounds of the present invention were also tested at a constant concentration for varying doses of UV light. Three sets of 1.5 mL tubes were prepared containing 0.6mL aliquots of R17 in DMEM (prepared as described above). The compound tested was added at the desired concentration and the samples were vortexed. The samples were then irradiated at intervals of 1.0 J/cm^2, until 3.0 J/cm^2 was reached. Between each 1.0 J/cm^2 interval, 100 μL was removed from each sample and placed in the first corresponding dilution tube, then five sequential dilutions were performed for each compound tested, at all 3 irradiation doses, as described above in this example.
Then 50 μL of Hfr 3000 bacteria was added to each tube, 3 mL of top agar was added and the tube contents were vortexed The contents of each tube was poured into its own LB plate and the plates were incubated overnight at 37° C. Plaques were counted by visual inspection the following morning.

Data set [1] is described as follows: S-59 concentration by HPLC before and after illumination and RD treatment (Table Q). It counts as physicochemical. As to the method: (§1) Two ABO-matched single donor PCs containing 2−5×10^11 platelets in approximately 300 mL of 35% plasma and 65% PAS III were pooled and redivided into two identical units in PL 2410 Plastic containers (Baxter). One unit (the control) was immediately placed on a platelet shaker and stored at approximately 22° C. The other unit (the test) was treated with 150 μM S-59 and 3 Joules/cm^2 UVA. After treatment, the platelets suspension was transferred into a second PL 2410 Plastic container containing a RD. Contact between platelets and the RD occurred for a period of approximately 8 hours, then the platelet suspension was transferred to a new PL 2410 Plastic container for storage. The time of blood donation was defined as day 0. Treatment with S-59, UVA (320-400 nm), and the RD was performed on day 1. Six replicate experiments were carried out, each with a different pool of two ABO-matched single-donor platelet concentrates.
To evaluate the efficacy of the RD for reducing the concentration of S-59, platelet samples from the test unit were analyzed for S-59 content by HPLC. Samples before illumination, after 3 Joules/cm^2 of illumination, and immediately following the 8-hour RD treatment were analyzed.

A further data set concerns platelets. Briefly: In vitro platelet function after photochemical treatment and 8-hour RD treatment (Tables O, P). Format: cell-based, human. Conditions: RD 8 hours; for pH: T: 150 μM S-59, 3 Joules/cm^2 UVA; for (%) Aggregation / (%) HSR / (%) Microvesicle Formation / (%) p-Selectin-Positive / ATP / Bicarbonate / Glucose / Lactate / Morphology (Out Of 400) / Platelet Shape Change / Platelet count / pCO2 / pO2: T: S-59, UVA. The protocol:
as §1
For the evaluation of in vitro platelet function, platelet samples were withdrawn from both the control and test units before treatment and after treatment on days 2, 5, and 7. The following parameters were analyzed: pH, pO2, pCO2, bicarbonate concentration, platelet count, morphology, aggregation, platelet shape change, hypotonic shock response, lactate production, glucose consumption, ATP secretion, p-selectin expression, and microvesicle formation. Several of these assays, including pH, morphology score, platelet shape change, and hypotonic shock response, have been reported in the literature to correlate with in- vivo post-transfusion recovery and survival. The Student's paired t-test was used for statistical analysis.
For platelet count measurement, the volume of the control unit is approximately 5% less than the volume of the paired test unit; thus, for statistical analysis the platelet count per μL for the test unit was adjusted by a factor of […]. The pH of the treated platelets was maintained at 6.91±0.05 after seven days of storage following treatment.

Take `Cc1oc2c(C)c3oc(=O)cc(C)c3cc2c1CN` [AMT, 4′-Aminomethyl-4,5′,8-trimethylpsoralen, reference compound]: the “DNA base pairs per AMT adduct (up to 1 adduct per)” value in the data set on DNA is 3.5 DNA base pairs.
As to `Cc1oc2c(C)c3oc(=O)cc(C)c3cc2c1CNCCCCN` [Compound 6, 4′-(6-amino-2-aza)hexyl-4,5′,8-trimethylpsoralen], the “R17 inactivation efficiency compared with AMT (in words)” value in the data set on R17 bacteriophage is recorded as “more efficient at inactivating R17 than was AMT”.
Take `Cc1oc2c(C)c3oc(=O)cc(C)c3cc2c1COCCN` [Compound 2, 4′-(4-amino-2-oxa)butyl-4,5′,8-trimethylpsoralen]: the “initial S-59 concentration in a platelet concentrate” value in data set [1] (0 Joule/cm^2, HPLC) is listed as “approximately 145±10 μM”. Moreover, the “μM S-59” value in data set [1] (Post Treatment With An RD (8 Hours)) was found to be 0.27 ± 0.05 µM. In addition, in data set [1] (Pre-Treatment (0 Joule/cm^2), platelet concentrate), the “μM S-59” value came to 145 ± 10 µM. For the same compound, the “initial S-59 remaining unreacted” value in data set [1] (after 3 Joule/cm^2 of illumination) is reported as 20.5%±2.3%. Moreover, in the data set on platelets (Day 2), the pH is listed as 6.94 ± 0.05, the “(%) Aggregation” value was 88 ± 4%, the “(%) HSR” value is on record as 52 ± 5 % and the “(%) Microvesicle Formation” value turned out to be 0.9 ± 0.2%. In the data set with platelets (Day 2), the “(%) p-Selectin-Positive” value was determined as 49 ± 5 %, the ATP came to 1.0 ± 0.1 Nmoles Per 10^8 Platelets, the Bicarbonate was 6.3 ± 0.3 mM and the Glucose was found to be 4.6 ± 0.9 mM. In the data set with platelets (Day 2), the Lactate turned out to be 4.7 ± 1.2 mM, the “Morphology (Out Of 400)” value is given as 302 ± 16, the “Platelet Shape Change” value came to 1.0 ± 0.1 and the Platelet count is 1545 ± 247 × 10^−3/μL. In the data set with platelets (Day 2), this compound showed a pCO2 of 29.2 ± 3.8 mm Hg and a pO2 of 68.3 ± 19.4 mm Hg. Besides, in the data set with platelets (Day 5), the pH was determined as 6.92 ± 0.06, the “(%) Aggregation” value came to 81 ± 7%, the “(%) HSR” value is 45 ± 3% and the “(%) Microvesicle Formation” value is given as 0.8 ± 0.2%. In addition, in the data set with platelets (Day 5), the “(%) p-Selectin-Positive” value is recorded as 58 ± 5%, the ATP came out at 0.7 ± 0.2 Nmoles Per 10^8 Platelets, the Bicarbonate came to 4.8 ± 0.5 mM and the Glucose is given as 2.1 ± 1.1 mM. In the data set on platelets (Day 5), the Lactate turned out to be 8.5 ± 1.6 mM, the “Morphology (Out Of 400)” value turned out to be 290 ± 20, the “Platelet Shape Change” value worked out at 0.9 ± 0.1 and the Platelet count is 1525 ± 246 × 10^−3/μL. In the data set with platelets (Day 5), this compound showed a pCO2 of 23.7 ± 3.5 mm Hg and a pO2 of 84.8 ± 22.5 mm Hg. For the same compound, in the data set with platelets (Day 7), the pH stood at 6.91 ± 0.05, the “(%) Aggregation” value worked out at 81 ± 4%, the “(%) HSR” value is given as 48 ± 8% and the “(%) Microvesicle Formation” value is on record as 1.7 ± 1.7%. Also, in the data set with platelets (Day 7), the “(%) p-Selectin-Positive” value was found to be 60 ± 7%, the ATP was 0.6 ± 0.2 Nmoles Per 10^8 Platelets, the Bicarbonate was 4.2 ± 0.7 mM and the Glucose turned out to be 0.8 ± 0.8 mM. Further, in the data set on platelets (Day 7), the Lactate is recorded as 10.8 ± 1.3 mM, the “Morphology (Out Of 400)” value is 274 ± 12, the “Platelet Shape Change” value turned out to be 0.9 ± 0.3 and the Platelet count is on record as 1500 ± 219 × 10^−3/μL. In the data set with platelets (Day 7), this compound yielded a pCO2 of 20.7 ± 2.4 mm Hg and a pO2 of 88.8 ± 20.2 mm Hg.
